In patent US12325697B2 (Nimbus Clio, Inc., priority 2021, dated 2025):

Tests used:
[1] = biological target: Recombinant human Cbl-b (aa 36-427) (Homo sapiens (Human), UniProt Q13191); assay: Cbl-b Biochemical Assay (TR-FRET); settings: read-out: TR-FRET hCbl-b IC50
Summary of the method: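 Two-step TR-FRET: 6 nM biotinylated Cbl-b preincubated 30-60 min with compound, then 60 min at RT with 1-2.5 nM Src-Zap70 and 0.5 mM ATP in HEPES pH 7.0 buffer, 1% DMSO. Stopped with 5 mM EDTA plus 100 nM UBE2D2-Ub-FL-BODIPY and 1 nM streptavidin-Tb, 60 min; 520 nm signal; IC50 from 4-parameter fit.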

[2] = biological target: Recombinant human c-Cbl (aa 47-435) (Homo sapiens (Human), UniProt P22681); assay: c-Cbl Biochemical Assay (TR-FRET)
Summary of the method: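 Biotinylated c-Cbl (6 nM) preincubated 30 min RT with compound, then reacted 60-90 min with Src-Zap70 (2.5-10 nM) and 0.5 mM ATP, pH 7.0 HEPES buffer. Stopped with EDTA; 100 nM Bodipy-ubiquitinated UBE2D2 binding read by TR-FRET after 60 min; IC50 from 4-parameter fit.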

Chain of Recombinant human Cbl-b (aa 36-427) (Q13191 36-427): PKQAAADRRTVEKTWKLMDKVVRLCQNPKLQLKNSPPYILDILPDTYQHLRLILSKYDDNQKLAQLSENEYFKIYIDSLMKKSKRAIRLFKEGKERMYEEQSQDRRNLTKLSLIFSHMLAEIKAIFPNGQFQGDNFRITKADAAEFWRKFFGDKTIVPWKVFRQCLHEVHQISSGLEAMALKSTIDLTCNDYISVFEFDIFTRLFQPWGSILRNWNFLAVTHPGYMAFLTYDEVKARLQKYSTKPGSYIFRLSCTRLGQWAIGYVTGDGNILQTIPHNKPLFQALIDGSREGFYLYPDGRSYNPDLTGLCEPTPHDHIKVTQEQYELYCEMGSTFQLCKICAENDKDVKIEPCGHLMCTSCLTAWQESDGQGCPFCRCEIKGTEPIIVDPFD
Chain of Recombinant human c-Cbl (aa 47-435) (P22681 47-435): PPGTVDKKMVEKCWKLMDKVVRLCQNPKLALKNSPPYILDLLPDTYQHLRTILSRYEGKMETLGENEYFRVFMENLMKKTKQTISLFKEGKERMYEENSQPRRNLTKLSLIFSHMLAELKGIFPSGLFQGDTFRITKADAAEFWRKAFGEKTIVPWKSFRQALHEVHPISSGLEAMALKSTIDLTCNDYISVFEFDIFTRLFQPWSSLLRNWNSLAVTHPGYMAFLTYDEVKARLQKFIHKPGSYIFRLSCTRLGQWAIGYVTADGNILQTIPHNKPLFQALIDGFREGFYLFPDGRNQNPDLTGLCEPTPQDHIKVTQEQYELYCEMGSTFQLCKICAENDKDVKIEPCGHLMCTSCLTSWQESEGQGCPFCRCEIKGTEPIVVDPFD

`Cn1cnnc1-c1cc(C#N)ccc1-c1cc(C2CC2)nc(N2Cc3ccc(C(C)(C)NCC4CCC4)cc3C2=O)c1` [AOS-2, 4-[2-(6-{2-[(Cyclobutylmethyl)amino]propan-2-yl}-1-oxo-3H-isoindol-2-yl)-6-cyclopropylpyridin-4-yl]-3-(4-methyl-1,2,4-triazol-3-yl)benzonitrile] was tested, and the IC50 [1] was ≤ 200 nM and the IC50 [2] was ≤ 200 nM.
In the case of `COc1cc2c(cc1CO)C(=O)N(c1cc(-c3ccc(C#N)cc3-c3nncn3C)cc(C3CC3)n1)C2` [AKL-2, 4-{2-Cyclopropyl-6-[6-(hydroxymethyl)-5-methoxy-1-oxo-3H-isoindol-2-yl]pyridin-4-yl}-3-(4-methyl-1,2,4-triazol-3-yl)benzonitrile], the IC50 [1] is reported as ≤ 200 nM and the IC50 [2] is reported as ≤ 200 nM.
`COC[C@H](C)NCc1cc(F)c2c(c1)C(=O)N(c1cc(-c3ccc(C#N)cc3-c3nncn3C)cc(C3CC3)n1)C2` [AKG-1, 4-{2-Cyclopropyl-6-[4-fluoro-6-({[(2S)-1-methoxypropan-2-yl]amino}methyl)-1-oxo-3H-isoindol-2-yl]pyridin-4-yl}-3-(4-methyl-1,2,4-triazol-3-yl)benzonitrile] was tested, and the IC50 [1] was ≤ 200 nM and the IC50 [2] was ≤ 200 nM.
With `CNC[C@@H](O)COc1ccc2c(c1)C(=O)N(c1cc(-c3ccc(C#N)cc3-c3nncn3C)cc(C3CC3)n1)C2` [AJV-3, 4-(2-Cyclopropyl-6-{6-[(2R)-2-hydroxy-3-(methylamino)propoxy]-1-oxo-3H-isoindol-2-yl}pyridin-4-yl)-3-(4-methyl-1,2,4-triazol-3-yl)benzonitrile] the IC50 [1] was ≤ 200 nM and the IC50 [2] was ≤ 200 nM.
In the case of `Cn1cnnc1-c1cc(C#N)ccc1-c1cc(C2CC2)nc(N2Cc3c(F)cc(CNCC(F)(F)F)cc3C2=O)c1` [ALW-1, -[2-Cyclopropyl-6-(4-fluoro-1-oxo-6-{[(2,2,2-trifluoroethyl)amino]methyl}-3H-isoindol-2-yl)pyridin-4-yl]-3-(4-methyl-1,2,4-triazol-3-yl)benzonitrile], the IC50 [1] is reported as ≤ 200 nM and the IC50 [2] is reported as ≤ 200 nM.
`Cn1cnnc1-c1cc(C#N)ccc1-c1cc(C2CC2)nc(N2Cc3c(F)cc(CNCC4CC4)cc3C2=O)c1` [AMC-2, 4-[2-Cyclopropyl-6-(6-{[(cyclopropylmethyl)amino]methyl}-4-fluoro-1-oxo-3H-isoindol-2-yl)pyridin-4-yl]-3-(4-methyl-1,2,4-triazol-3-yl)benzonitrile] was tested, and the IC50 [1] was ≤ 200 nM and the IC50 [2] was ≤ 200 nM.
With `Cn1cnnc1-c1cc(C#N)ccc1-c1cc(C2CC2)nc(N2Cc3ccc(CNCC4(C)COC4)cc3C2=O)c1` [AMU-2, 4-{2-Cyclopropyl-6-[6-({[(3-methyloxetan-3-yl)methyl]amino}methyl)-1-oxo-3H-isoindol-2-yl]pyridin-4-yl}-3-(4-methyl-1,2,4-triazol-3-yl)benzonitrile] the IC50 [1] was ≤ 200 nM and the IC50 [2] was ≤ 200 nM.
With `CN1CC[C@@H](NCc2ccc3c(c2)C(=O)N(c2cc(-c4ccc(C#N)cc4-c4nncn4C)cc(C4CC4)n2)C3)C1=O` [AIZ-2, 4-{2-Cyclopropyl-6-[6-({[(3R)-1-methyl-2-oxopyrrolidin-3-yl]amino}methyl)-1-oxo-3H-isoindol-2-yl]pyridin-4-yl}-3-(4-methyl-1,2,4-triazol-3-yl)benzonitrile] the IC50 [1] was ≤ 200 nM and the IC50 [2] was ≤ 200 nM.
With `Cn1cnnc1-c1cc(C#N)ccc1-c1cc(C2CC2)nc(N2Cc3ccc(CNC4CCOC4)cc3C2=O)c1` (stereo in doubt) [ANP-2, 4-[2-Cyclopropyl-6-(1-oxo-6-{[(3S)-oxolan-3-ylamino]methyl}-3H-isoindol-2-yl)pyridin-4-yl]-3-(4-methyl-1,2,4-triazol-3-yl)benzonitrile] the IC50 [1] was ≤ 200 nM and the IC50 [2] was ≤ 200 nM.
In the case of `C[C@H]1CCCN(Cc2ccc3c(c2)C(=O)N(c2cc(-c4ccc(C#N)cc4-c4nncn4C)cc(C4CC4)n2)C3)C1` [ALS-1, 4-[2-Cyclopropyl-6-(6-{[(3S)-3-methylpiperidin-1-yl]methyl}-1-oxo-3H-isoindol-2-yl)pyridin-4-yl]-3-(4-methyl-1,2,4-triazol-3-yl)benzonitrile], the IC50 [1] is reported as ≤ 200 nM and the IC50 [2] is reported as ≤ 200 nM.
In the case of `Cn1cnnc1-c1cc(C#N)ccc1-c1cc(C2CC2)nc(N2Cc3ccc(OC[C@H](O)CO)cc3C2=O)c1` [AJN-3, (R)-4-(2-Cyclopropyl-6-(6-(2,3-dihydroxypropoxy)-1-oxoisoindolin-2-yl)pyridin-4-yl)-3-(4-methyl-4H-1,2,4-triazol-3-yl)benzonitrile], the IC50 [1] is reported as ≤ 200 nM and the IC50 [2] is reported as ≤ 200 nM.
For `Cn1cnnc1-c1cc(C#N)ccc1-c1cc(C2CC2)nc(N2Cc3c(F)cc(CN[C@]4(C)COC[C@@H]4O)cc3C2=O)c1` (stereo in doubt) [AOF-9, 4-[2-Cyclopropyl-6-(4-fluoro-6-{[(4-hydroxy-3-methyloxolan-3-yl)amino]methyl}-1-oxo-3H-isoindol-2-yl)pyridin-4-yl]-3-(4-methyl-1,2,4-triazol-3-yl)benzonitrile], the IC50 [1] was < 200 nM and the IC50 [2] was < 200 nM.
In the case of `C#CCOc1ccc(-c2cc(NCC)nc(N3Cc4c(cccc4C(F)(F)F)C3=O)c2)c(-c2nncn2C)c1` [AHU-12, 2-[6-(Ethylamino)-4-[2-(4-methyl-1,2,4-triazol-3-yl)-4-(prop-2-yn-1-yloxy)phenyl]pyridin-2-yl]-4-(trifluoromethyl)-3H-isoindol-1-one], the IC50 [1] is reported as ≤ 200 nM and the IC50 [2] is reported as 200 to 1000 nM.
`Cn1cnnc1-c1cc(C#N)ccc1-c1cc(C2CC2)nc(N2Cc3ccc(CNCC4(CO)CCC4)cc3C2=O)c1` [AMA-2, 4-(2-Cyclopropyl-6-{6-[({[1-(hydroxymethyl)cyclobutyl]methyl}amino)methyl]-1-oxo-3H-isoindol-2-yl}pyridin-4-yl)-3-(4-methyl-1,2,4-triazol-3-yl)benzonitrile] was tested, and the IC50 [1] was ≤ 200 nM and the IC50 [2] was ≤ 200 nM.
For `COC1(CNCc2ccc3c(c2)C(=O)N(c2cc(-c4ccc(C#N)cc4-c4nncn4C)cc(C4CC4)n2)C3)CCCC1` [AKE-2, 4-{2-Cyclopropyl-6-[6-({[(1-methoxycyclopentyl)methyl]amino}methyl)-1-oxo-3H-isoindol-2-yl]pyridin-4-yl}-3-(4-methyl-1,2,4-triazol-3-yl)benzonitrile], the IC50 [1] was ≤ 200 nM and the IC50 [2] was ≤ 200 nM.
With `CNC[C@H](O)COc1ccc2c(c1)C(=O)N(c1cc(-c3ccc(C#N)cc3-c3nncn3C)cc(C3CC3)n1)C2` [AJU-3, 4-(2-Cyclopropyl-6-{6-[(2S)-2-hydroxy-3-(methylamino)propoxy]-1-oxo-3H-isoindol-2-yl}pyridin-4-yl)-3-(4-methyl-1,2,4-triazol-3-yl) benzonitrile] the IC50 [1] was ≤ 200 nM and the IC50 [2] was ≤ 200 nM.
In the case of `Cn1cnnc1-c1cc(C#N)ccc1-c1cc(C2CC2)nc(N2Cc3c(F)cc(CNCC4(F)CCC4)cc3C2=O)c1` [AKK-1, 4-{2-Cyclopropyl-6-[4-fluoro-6-({[(1-fluorocyclobutyl)methyl]amino}methyl)-1-oxo-3H-isoindol-2-yl]pyridin-4-yl}-3-(4-methyl-1,2,4-triazol-3-yl)benzonitrile], the IC50 [1] is reported as ≤ 200 nM and the IC50 [2] is reported as ≤ 200 nM.
In the case of `Cn1cnnc1-c1cc(C#N)ccc1-c1cc(C2CC2)nc(N2Cc3ccc(CN4CC5CC5C4)cc3C2=O)c1` (stereo not drawn) [ANA-1, 4-[2-(6-{3-Azabicyclo[3.1.0]hexan-3-ylmethyl}-1-oxo-3H-isoindol-2-yl)-6-cyclopropylpyridin-4-yl]-3-(4-methyl-1,2,4-triazol-3-yl)benzonitrile], the IC50 [1] is reported as ≤ 200 nM and the IC50 [2] is reported as ≤ 200 nM.
For `Cn1cnnc1-c1cc(C#N)ccc1-c1cc(C2CC2)nc(N2Cc3ccc(C(C)(C)NCC4COC4)cc3C2=O)c1` [AMT-2, 4-[2-Cyclopropyl-6-(6-{2-[(oxetan-3-ylmethyl)amino]propan-2-yl}-1-oxo-3H-isoindol-2-yl)pyridin-4-yl]-3-(4-methyl-1,2,4-triazol-3-yl) benzonitrile], the IC50 [1] was ≤ 200 nM and the IC50 [2] was ≤ 200 nM.
For `Cn1cnnc1-c1cc(C#N)ccc1-c1cc(C2CC2)nc(N2Cc3c(cc(CNCC4(O)CCC4)c(F)c3F)C2=O)c1` [AOX-1, 4-{2-Cyclopropyl-6-[4,5-difluoro-6-({[(1-hydroxycyclobutyl)methyl]amino}methyl)-1-oxo-3H-isoindol-2-yl]pyridin-4-yl}-3-(4-methyl-1,2,4-triazol-3-yl)benzonitrile], the IC50 [1] was ≤ 200 nM and the IC50 [2] was ≤ 200 nM.
`CNCCNCc1cc2c(c(C(F)(F)F)c1)CN(c1cc(-c3ccc(C#N)cc3-c3nncn3C)cc(C3CC3)n1)C2=O` [AMK-3, 4-{2-Cyclopropyl-6-[6-({[2-(methylamino)ethyl]amino}methyl)-1-oxo-4-(trifluoromethyl)-3H-isoindol-2-yl]pyridin-4-yl}-3-(4-methyl-1,2,4-triazol-3-yl)benzonitrile] was tested, and the IC50 [1] was ≤ 200 nM and the IC50 [2] was ≤ 200 nM.
In the case of `C[C@H](c1ccc2c(c1)C(=O)N(c1cc(-c3ccc(C#N)cc3-c3nncn3C)cc(C3CC3)n1)C2)N1CC2(COC2)C1` [AOE-1, 4-(2-Cyclopropyl-6-{6-[(1R)-1-{2-oxa-6-azaspiro[3.3]heptan-6-yl}ethyl]-1-oxo-3H-isoindol-2-yl}pyridin-4-yl)-3-(4-methyl-1,2,4-triazol-3-yl)benzonitrile], the IC50 [1] is reported as ≤ 200 nM and the IC50 [2] is reported as ≤ 200 nM.
For `CN(Cc1cc(F)c2c(c1)C(=O)N(c1cc(-c3ccc(C#N)cc3-c3nncn3C)cc(C3CC3)n1)C2)CC1(O)CCC1` [AMW-2, 4-{2-Cyclopropyl-6-[4-fluoro-6-({[(1-hydroxycyclobutyl)methyl](methyl)amino}methyl)-1-oxo-3H-isoindol-2-yl]pyridin-4-yl}-3-(4-methyl-1,2,4-triazol-3-yl)benzonitrile], the IC50 [1] was ≤ 200 nM and the IC50 [2] was ≤ 200 nM.
In the case of `CCOc1cc(-c2ccc(F)cc2-c2nncn2C)cc(N2Cc3ccc(CN(C)CC4(O)CCC4)cc3C2=O)n1` [AJT-1, 2-{6-Ethoxy-4-[4-fluoro-2-(4-methyl-1,2,4-triazol-3-yl)phenyl]pyridin-2-yl}-6-({[(1-hydroxycyclobutyl)methyl] (methyl)amino}methyl)-3H-isoindol-1-one], the IC50 [1] is reported as ≤ 200 nM and the IC50 [2] is reported as ≤ 200 nM.
